Results from the NIST ThermoML archive (doi:10.1021/je700140j).

Experiment: xn = mol fraction of the nth substance listed
Conditions: for surface tension liquid-gas: Ring tensiometer; for mass density / viscosity: 100.8 kPa, Liquid

OCc1ccccc1 [benzenemethanol] + CC(C)O
Conditions	mass density, 298.15 K [kg/m3]	mass density, 308.15 K [kg/m3]	mass density, 318.15 K [kg/m3]	surface tension liquid-gas, 298.15 K [mN/m]	surface tension liquid-gas, 308.15 K [mN/m]	surface tension liquid-gas, 318.15 K [mN/m]	viscosity, 298.15 K [mPa·s]	viscosity, 308.15 K [mPa·s]	viscosity, 318.15 K [mPa·s]
x2 = 0	1041.4	1033.6	1025.72	38.63	37.73	36.75	5.555	4.093	3.12
x2 = 0.05	1032.82	1025.02	1017.09	37.5	36.66	35.75	5.299	3.91	2.989
x2 = 0.1	1023.74	1015.91	1007.96	36.4	35.63	34.76	5.053	3.73	2.864
x2 = 0.15	1014.27	1006.4	998.38	35.35	34.6	33.77	4.799	3.558	2.745
x2 = 0.2	1004.39	996.5	988.43	34.3	33.59	32.78	4.559	3.389	2.628
x2 = 0.25	994.22	986.26	978.11	33.27	32.58	31.81	4.332	3.23	2.513
x2 = 0.3	983.63	975.59	967.39	32.27	31.58	30.83	4.116	3.076	2.4
x2 = 0.35	972.64	964.56	956.29	31.27	30.58	29.85	3.911	2.921	2.285
x2 = 0.4	961.2	953.08	944.75	30.3	29.6	28.9	3.714	2.772	2.172
x2 = 0.45	949.36	941.19	932.79	29.36	28.66	27.95	3.523	2.631	2.059
x2 = 0.5	937.02	928.79	920.32	28.45	27.75	27.05	3.335	2.49	1.953
x2 = 0.55	924.21	915.93	907.36	27.63	26.93	26.25	3.169	2.37	1.858
x2 = 0.6	910.83	902.49	893.86	26.83	26.15	25.48	3.01	2.256	1.769
x2 = 0.65	896.91	888.53	879.84	26.05	25.38	24.73	2.858	2.145	1.68
x2 = 0.7	882.44	874.02	865.32	25.28	24.61	23.98	2.715	2.042	1.594
x2 = 0.75	867.32	858.91	850.19	24.53	23.85	23.23	2.58	1.946	1.511
x2 = 0.8	851.54	843.1	834.29	23.78	23.1	22.48	2.46	1.851	1.434
x2 = 0.85	835.11	826.58	817.75	23.05	22.35	21.73	2.346	1.761	1.359
x2 = 0.9	817.95	809.39	800.5	22.33	21.6	20.96	2.251	1.675	1.295
x2 = 0.95	800	791.45	782.46	21.61	20.85	20.19	2.148	1.602	1.228
